This assay concerns guinea pig perilymph proteome.

Structures are written as SMILES. Like-named read-outs stand apart in the source and are kept apart here.

Method: Animals were treated and sampled independently, and perilymph samples were stored at −80° C. and processed for proteomics analysis upon collection of all samples.
Dexamethasone Treatment of Animals. […] Twenty-two juvenile guinea pigs of either sex weighing between 150 and 300 g were obtained from a commercial vendor (Charles River Laboratories, Inc., Wilmington, Mass.).
Eight animals were assigned to the control group and were not given any treatment prior to aspiration. […] Guinea pigs were anesthetized with isoflurane gas (3.0% for induction and 1.0-3.0% for maintenance). […] The guinea pig remained under isoflurane anesthesia in a left lateral decubitus position for 30 min. The guinea pig was then allowed to recover in its cage until the aspiration procedure.
Aspiration Procedure. All guinea pigs underwent the aspiration procedure detailed below. […] All procedures were performed on the right ear. Guinea pigs were anesthetized with isoflurane gas (3.0% for induction and 1.0-3.0% for maintenance). Lidocaine was injected subcutaneously for local anesthesia. Buprenorphine sustained release (0.1 mg/kg) and meloxicam (0.5 mg/kg) were both administered subcutaneously prior to surgery for postoperative analgesia. To reduce head motion from breath cycles, head fixation was achieved using a modular 3D-printed head holder with two pointed screws placed anterior to the external auditory meatus and posterior to the orbit without piercing the skin.
A scalpel was used to create a 1 cm postauricular incision. Blunt dissection was used to expose the bulla. A 1 mm drill tip fixed onto a Stryker S2 πDrive drill (Stryker, Kalamazoo, Mich.) was used to create a small opening into the middle ear space. Additional bone was removed using forceps to enlarge the opening to 2-3 mm in diameter for optimal visualization of the RWM. A hollow microneedle, mounted onto the tip of a 2 in. long, 30 gauge, blunt small hub removable needle (Hamilton Company, Reno, Nev.), was secured onto a 10 μL Gastight Hamilton syringe (Model 1701 RN, Hamilton Company, Reno, Nev.). The syringe was mounted onto a UMP3 UltraMicroPump (World Precise Instruments, Sarasota, Fla.), and the pump was fixed to a micromanipulator. Using the micromanipulator, the mounted hollow microneedle was slowly advanced toward the RWM and the perforation was confirmed by visualization.
Using the UltraMicroPump, 1 μL of perilymph was aspirated across theRWMover 45 s. The sample was ejected into a 0.5 mL LoBind Microcentrifuge tube (Eppendorf, Hamburg, Germany) containing 2 μL of 1% protease cocktail inhibitor solution (P8340, Sigma-Aldrich, St. Louis, Mo.) in liquid chromatography/mass spectrometry grade water (Optima, ThermoFisher Scientific, Fair Lawn, N.J.) and stored at −80° C. Seventy-two hours after aspiration, animals were sacrificed with pentobarbital overdose.
Proteomics Analysis. All perilymph samples (1 μL) were stored at −80° C. and then processed as described previously. Briefly, samples were purified with a methanol chloroform protein precipitation as previously described. Proteins were resuspended in 8 M urea, 3 mM dithiothreitol (DTT), 100 mM ammonium bicarbonate in liquid chromatography/mass spectrometry grade water, reduced with dithiothreitol, and alkylated with iodoacetamide. For proteolytic digestion, samples were diluted 5-fold in 100 mM ammonium bicarbonate and then digested using sequencing grade trypsin (Promega V511) at a protease/protein ratio of 1:50 at 37° C. for 16 h as described previously. Samples were then desalted with Nest Group C18 Macrospin columns (Southborough, Mass.). Resulting peptides were analyzed by liquid chromatography/mass spectrometry as described previously.

In the case of `C[C@@H]1C[C@H]2[C@@H]3CCC4=CC(=O)C=C[C@]4(C)[C@@]3(F)[C@@H](O)C[C@]2(C)[C@@]1(O)C(=O)COP(=O)(O)O` [Dex, Dexamethasone sodium phosphate], the “number of perilymph proteins downregulated compared to control” value is 6 proteins (IP Dex group) and “two” (IT Dex group). The “number of perilymph proteins upregulated compared to control” value by setting is: (IP Dex group) 8 proteins; (IT Dex group) “one”. Also, the “number of perilymph proteins modulated compared to control” value by setting is: (IP Dex group, of 175 proteins analysed) 14 proteins; (IT Dex group, of 175 proteins analysed) “three”; (by either IP Dex or IT Dex, overall) 15 proteins.

(Values after patent US20220032023A1, “ULTRA-SHARP MICRONEEDLE” (THE TRUSTEES OF COLUMBIA UNIVERSITY IN THE CITY OF NEW YORK, priority 2019, published 2022).)
